Experiment [1] relates to tobacco bacterial wilt pathogen (Rs). It is filed as cell-based, Ralstonia solanacearum.
Experiment [2] relates to citrus canker pathogen (Xac). Put plainly: Turbidimetric anti-plant bacterial activity test, citrus canker pathogen. It is filed as cell-based, Xanthomonas axonopodis pv. citri.
Experiment [3] concerns rice bacterial wilt pathogen (Xoo). It is filed as cell-based, Xanthomonas oryzae pv. oryzae.

Read-outs that look alike come from different tables or passages of the source.

Consider `COc1cc(OC)c2c(=O)c(OCCCCN(C)C3CCN(S(=O)(=O)c4ccccn4)CC3)c(-c3cc(OC)c(OC)c(OC)c3)oc2c1` [Compound I18], for which the “Inhibition Rate” value stood at 46.22 ± 3.27% in experiment [1] (50 μg/mL); 30.11 ± 1.65% in experiment [1] (100 μg/mL); 88.69 ± 0.71% in experiment [2] (50 μg/mL); 93.05 ± 0.55% in experiment [2] (100 μg/mL); 70.98 ± 3.04% in experiment [3] (50 μg/mL); 78.12 ± 4.25% in experiment [3] (100 μg/mL).
Take `COc1cc(OC)c2c(=O)c(OCCCCN(C)C3CCN(S(=O)(=O)c4cccs4)CC3)c(-c3cc(OC)c(OC)c(OC)c3)oc2c1` [Compound I14]: the “Inhibition Rate” value in experiment [1] (50 μg/mL) stood at 20.44 ± 5.03%; in experiment [1] (100 μg/mL) it was 8.17 ± 3.75%; in experiment [2] (50 μg/mL) it was 66.18 ± 0.61%; in experiment [2] (100 μg/mL) it was 73.80 ± 3.68%; in experiment [3] (50 μg/mL), 92.19 ± 0.98%; in experiment [3] (100 μg/mL) it was 95.49 ± 0.98%.
For `COc1cc(OC)c2c(=O)c(OCCCN(C)C3CCN(S(=O)(=O)c4cccs4)CC3)c(-c3cc(OC)c(OC)c(OC)c3)oc2c1` [Compound I4], the “Inhibition Rate” value was 46.44 ± 8.48% in experiment [1] (50 μg/mL); 58.19 ± 8.11% in experiment [1] (100 μg/mL); 76.83 ± 2.59% in experiment [2] (50 μg/mL); 81.47 ± 3.58% in experiment [2] (100 μg/mL); 21.34 ± 3.45% in experiment [3] (50 μg/mL); 48.16 ± 4.24% in experiment [3] (100 μg/mL).
As for “bismerthiazol [Leaf Blight Azole, reference compound]”, the “Inhibition Rate” value in experiment [1] (50 μg/mL) is 57.63%; in experiment [1] (100 μg/mL) it was 65.69%; in experiment [2] (50 μg/mL), 50.60%; in experiment [2] (100 μg/mL), 66.63%; in experiment [3] (50 μg/mL), 39.14%; in experiment [3] (100 μg/mL) it was 60.50%.
As for `COc1cc(OC)c2c(=O)c(OCCCN(C)C3CCN(S(=O)(=O)c4ccccc4[N+](=O)[O-])CC3)c(-c3cc(OC)c(OC)c(OC)c3)oc2c1` [Compound I10], the “Inhibition Rate” value is listed as 57.89 ± 3.30% in experiment [1] (50 μg/mL); 94.99 ± 1.50% in experiment [1] (100 μg/mL); 38.60 ± 4.17% in experiment [2] (50 μg/mL); 45.69 ± 0.50% in experiment [2] (100 μg/mL); 59.65 ± 2.25% in experiment [3] (50 μg/mL); 67.71 ± 2.22% in experiment [3] (100 μg/mL).
In the case of `COc1cc(OC)c2c(=O)c(OCCCCN(C)C3CCN(S(=O)(=O)c4ccc(C)cc4)CC3)c(-c3cc(OC)c(OC)c(OC)c3)oc2c1` [Compound I11], the “Inhibition Rate” value in experiment [1] (50 μg/mL) turned out to be 46.83 ± 6.39%; in experiment [1] (100 μg/mL), 93.56 ± 0.55%; in experiment [2] (50 μg/mL), 47.25 ± 5.84%; in experiment [2] (100 μg/mL), 54.94 ± 8.29%; in experiment [3] (50 μg/mL) it was 71.76 ± 4.56%; in experiment [3] (100 μg/mL), 87.57 ± 2.76%.
For the molecule `COc1cc(OC)c2c(=O)c(OCCCN(C)C3CCN(S(=O)(=O)c4ccccn4)CC3)c(-c3cc(OC)c(OC)c(OC)c3)oc2c1` [Compound I8], the “Inhibition Rate” value was found to be 47.65 ± 0.35% in experiment [1] (50 μg/mL); 48.99 ± 2.35% in experiment [1] (100 μg/mL); 85.13 ± 2.35% in experiment [2] (50 μg/mL); 88.03 ± 1.19% in experiment [2] (100 μg/mL); 52.14 ± 3.12% in experiment [3] (50 μg/mL); 59.94 ± 3.35% in experiment [3] (100 μg/mL).
For the molecule `COc1cc(OC)c2c(=O)c(OCCCCN(C)C3CCN(S(=O)(=O)c4ccc([N+](=O)[O-])cc4)CC3)c(-c3cc(OC)c(OC)c(OC)c3)oc2c1` [Compound I16], the “Inhibition Rate” value in experiment [1] (50 μg/mL) came to 27.52 ± 7.50%; in experiment [1] (100 μg/mL), 26.66 ± 4.37%; in experiment [2] (50 μg/mL), 66.33 ± 3.56%; in experiment [2] (100 μg/mL), 74.41 ± 1.31%; in experiment [3] (50 μg/mL) it was 55.67 ± 6.24%; in experiment [3] (100 μg/mL), 70.41 ± 2.62%.
Consider `COc1cc(OC)c2c(=O)c(OCCCCN(C)C3CCN(S(=O)(=O)c4ccc5cccnc5c4)CC3)c(-c3cc(OC)c(OC)c(OC)c3)oc2c1` [Compound I19], for which the “Inhibition Rate” value in experiment [1] (50 μg/mL) was 37.71 ± 3.71%; in experiment [1] (100 μg/mL) it was 35.21 ± 6.56%; in experiment [2] (50 μg/mL) it was 85.44 ± 1.04%; in experiment [2] (100 μg/mL), 89.05 ± 0.47%; in experiment [3] (50 μg/mL), 38.72 ± 1.36%; in experiment [3] (100 μg/mL), 51.83 ± 2.05%.
As to `COc1cc(OC)c2c(=O)c(OCCCN(C)C3CCN(S(=O)(=O)c4ccc([N+](=O)[O-])cc4)CC3)c(-c3cc(OC)c(OC)c(OC)c3)oc2c1` [Compound I6], the “Inhibition Rate” value is 26.01 ± 6.89% in experiment [1] (50 μg/mL); 59.09 ± 4.18% in experiment [1] (100 μg/mL); 96.13 ± 1.63% in experiment [2] (50 μg/mL); 99.01 ± 0.64% in experiment [2] (100 μg/mL); 52.08 ± 6.32% in experiment [3] (50 μg/mL); 60.99 ± 5.49% in experiment [3] (100 μg/mL).
As to `COc1cc(OC)c2c(=O)c(OCCCN(C)C3CCN(S(=O)(=O)c4ccc5ccccc5c4)CC3)c(-c3cc(OC)c(OC)c(OC)c3)oc2c1` [Compound I2], the “Inhibition Rate” value in experiment [1] (50 μg/mL) was 34.17 ± 5.87%; in experiment [1] (100 μg/mL), 30.28 ± 8.79%; in experiment [2] (50 μg/mL) it was 92.76 ± 2.12%; in experiment [2] (100 μg/mL) it was 99.55 ± 5.61%; in experiment [3] (50 μg/mL) it was 88.53 ± 5.30%; in experiment [3] (100 μg/mL), 99.01 ± 4.53%.
Regarding `Nc1nnc([S-])s1.Nc1nnc([S-])s1.[Cu+2]` [Thiabenone, thiodiazole copper, reference compound], the “Inhibition Rate” value in experiment [1] (50 μg/mL) is 20.86 ± 4.42%; in experiment [1] (100 μg/mL), 40.20%; in experiment [2] (50 μg/mL), 44.97%; in experiment [2] (100 μg/mL), 70.68%; in experiment [3] (50 μg/mL), 58.92%; in experiment [3] (100 μg/mL), 70.12%.
`COc1cc(OC)c2c(=O)c(OCCCCN(C)C3CCN(S(=O)(=O)c4ccc(F)cc4)CC3)c(-c3cc(OC)c(OC)c(OC)c3)oc2c1` [Compound I13]: the “Inhibition Rate” value in experiment [1] (50 μg/mL) is reported as 43.16 ± 3.98%; in experiment [1] (100 μg/mL), 49.25 ± 4.14%; in experiment [2] (50 μg/mL) it was 47.25 ± 4.42%; in experiment [2] (100 μg/mL), 48.08 ± 1.17%; in experiment [3] (50 μg/mL), 99.72 ± 1.10%; in experiment [3] (100 μg/mL), 100.00 ± 0.67%.
Take `COc1ccc(S(=O)(=O)N2CCC(N(C)CCCOc3c(-c4cc(OC)c(OC)c(OC)c4)oc4cc(OC)cc(OC)c4c3=O)CC2)cc1` [Compound I5]: the “Inhibition Rate” value in experiment [1] (50 μg/mL) was 18.66 ± 9.95%; in experiment [1] (100 μg/mL), 49.03 ± 5.33%; in experiment [2] (50 μg/mL) it was 84.37 ± 1.91%; in experiment [2] (100 μg/mL), 95.86 ± 1.19%; in experiment [3] (50 μg/mL), 56.37 ± 2.44%; in experiment [3] (100 μg/mL), 68.42 ± 4.76%.
Take `COc1cc(OC)c2c(=O)c(OCCCN(C)C3CCN(S(=O)(=O)c4ccc(C)cc4)CC3)c(-c3cc(OC)c(OC)c(OC)c3)oc2c1` [Compound I1]: the “Inhibition Rate” value in experiment [1] (50 μg/mL) turned out to be 47.86 ± 5.55%; in experiment [1] (100 μg/mL), 58.01 ± 6.08%; in experiment [2] (50 μg/mL) it was 93.55 ± 0.85%; in experiment [2] (100 μg/mL), 99.20 ± 4.48%; in experiment [3] (50 μg/mL), 75.88 ± 1.80%; in experiment [3] (100 μg/mL) it was 81.34 ± 0.57%.
As for `COc1cc(OC)c2c(=O)c(OCCCN(C)C3CCN(S(=O)(=O)c4ccccc4)CC3)c(-c3cc(OC)c(OC)c(OC)c3)oc2c1` [Compound I7], the “Inhibition Rate” value in experiment [1] (50 μg/mL) was determined as 50.24 ± 2.21%; in experiment [1] (100 μg/mL) it was 52.83 ± 6.66%; in experiment [2] (50 μg/mL) it was 89.57 ± 2.14%; in experiment [2] (100 μg/mL), 92.48 ± 0.65%; in experiment [3] (50 μg/mL) it was 48.01 ± 3.21%; in experiment [3] (100 μg/mL), 53.46 ± 2.80%.
On to `COc1cc(OC)c2c(=O)c(OCCCCN(C)C3CCN(S(=O)(=O)c4ccccc4[N+](=O)[O-])CC3)c(-c3cc(OC)c(OC)c(OC)c3)oc2c1` [Compound I20], for which the “Inhibition Rate” value in experiment [1] (50 μg/mL) came out at 21.26 ± 8.58%; in experiment [1] (100 μg/mL), 4.11 ± 3.12%; in experiment [2] (50 μg/mL), 96.57 ± 0.31%; in experiment [2] (100 μg/mL) it was 97.30 ± 1.97%; in experiment [3] (50 μg/mL), 90.29 ± 4.84%; in experiment [3] (100 μg/mL), 94.47 ± 8.30%.
For the molecule `COc1ccc(S(=O)(=O)N2CCC(N(C)CCCCOc3c(-c4cc(OC)c(OC)c(OC)c4)oc4cc(OC)cc(OC)c4c3=O)CC2)cc1` [Compound I15], the “Inhibition Rate” value turned out to be 3.13 ± 5.57% in experiment [1] (50 μg/mL); 24.02 ± 2.41% in experiment [1] (100 μg/mL); 62.21 ± 1.33% in experiment [2] (50 μg/mL); 67.94 ± 1.42% in experiment [2] (100 μg/mL); 94.39 ± 0.62% in experiment [3] (50 μg/mL); 96.11 ± 0.71% in experiment [3] (100 μg/mL).
With `COc1cc(OC)c2c(=O)c(OCCCCN(C)C3CCN(S(=O)(=O)c4ccc5ccccc5c4)CC3)c(-c3cc(OC)c(OC)c(OC)c3)oc2c1` [Compound I12], the “Inhibition Rate” value in experiment [1] (50 μg/mL) came to 45.75 ± 3.32%; in experiment [1] (100 μg/mL), 36.46 ± 7.42%; in experiment [2] (50 μg/mL) it was 29.56 ± 7.62%; in experiment [2] (100 μg/mL), 35.81 ± 2.40%; in experiment [3] (50 μg/mL), 89.81 ± 1.34%; in experiment [3] (100 μg/mL), 95.44 ± 4.92%.
Turning to `COc1cc(OC)c2c(=O)c(OCCCN(C)C3CCN(S(=O)(=O)c4ccc5cccnc5c4)CC3)c(-c3cc(OC)c(OC)c(OC)c3)oc2c1` [Compound I9], the “Inhibition Rate” value in experiment [1] (50 μg/mL) was 12.10 ± 2.57%; in experiment [1] (100 μg/mL), 28.82 ± 3.37%; in experiment [2] (50 μg/mL) it was 32.80 ± 2.29%; in experiment [2] (100 μg/mL), 42.50 ± 1.87%; in experiment [3] (50 μg/mL) it was 37.31 ± 5.41%; in experiment [3] (100 μg/mL), 40.25 ± 1.39%.
As to `COc1cc(OC)c2c(=O)c(OCCCCN(C)C3CCN(S(=O)(=O)c4ccccc4)CC3)c(-c3cc(OC)c(OC)c(OC)c3)oc2c1` [Compound I17], the “Inhibition Rate” value in experiment [1] (50 μg/mL) is listed as 45.66 ± 3.26%; in experiment [1] (100 μg/mL), 38.06 ± 1.91%; in experiment [2] (50 μg/mL), 99.00 ± 0.40%; in experiment [2] (100 μg/mL), 99.52 ± 0.87%; in experiment [3] (50 μg/mL), 89.16 ± 1.26%; in experiment [3] (100 μg/mL) it was 98.29 ± 2.42%.

Values taken from patent US12063930B2, “Sulfonamide-containing 4-(N-methyl) aminopiperidine myricetin derivatives, preparation method and application” (Guizhou University, priority 2019, dated 2024).
